In publication PMC6934184, “Selective DNA-PKcs inhibition extends the therapeutic index of localized radiotherapy and chemotherapy” (The Journal of Clinical Investigation, 2019):

Biological target: T1, MAP3K9 (MLK1) (Homo sapiens, UniProt P80192)
T1 construct: purchased Thermo Fisher Scientific (Life Technologies) SelectScreen
Assay: SelectScreen Z'LYTE
Type: biochemical
Method in brief: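 NU5455 was profiled across the SelectScreen Broad panel of kinase activity and binding assays. Z'LYTE reactions such as CSF1R ran at apparent Km ATP, while the Adapta CAMK1 assay used ATP listed as 10. Values are given as percent.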

T1 sequence (P80192 whole entry): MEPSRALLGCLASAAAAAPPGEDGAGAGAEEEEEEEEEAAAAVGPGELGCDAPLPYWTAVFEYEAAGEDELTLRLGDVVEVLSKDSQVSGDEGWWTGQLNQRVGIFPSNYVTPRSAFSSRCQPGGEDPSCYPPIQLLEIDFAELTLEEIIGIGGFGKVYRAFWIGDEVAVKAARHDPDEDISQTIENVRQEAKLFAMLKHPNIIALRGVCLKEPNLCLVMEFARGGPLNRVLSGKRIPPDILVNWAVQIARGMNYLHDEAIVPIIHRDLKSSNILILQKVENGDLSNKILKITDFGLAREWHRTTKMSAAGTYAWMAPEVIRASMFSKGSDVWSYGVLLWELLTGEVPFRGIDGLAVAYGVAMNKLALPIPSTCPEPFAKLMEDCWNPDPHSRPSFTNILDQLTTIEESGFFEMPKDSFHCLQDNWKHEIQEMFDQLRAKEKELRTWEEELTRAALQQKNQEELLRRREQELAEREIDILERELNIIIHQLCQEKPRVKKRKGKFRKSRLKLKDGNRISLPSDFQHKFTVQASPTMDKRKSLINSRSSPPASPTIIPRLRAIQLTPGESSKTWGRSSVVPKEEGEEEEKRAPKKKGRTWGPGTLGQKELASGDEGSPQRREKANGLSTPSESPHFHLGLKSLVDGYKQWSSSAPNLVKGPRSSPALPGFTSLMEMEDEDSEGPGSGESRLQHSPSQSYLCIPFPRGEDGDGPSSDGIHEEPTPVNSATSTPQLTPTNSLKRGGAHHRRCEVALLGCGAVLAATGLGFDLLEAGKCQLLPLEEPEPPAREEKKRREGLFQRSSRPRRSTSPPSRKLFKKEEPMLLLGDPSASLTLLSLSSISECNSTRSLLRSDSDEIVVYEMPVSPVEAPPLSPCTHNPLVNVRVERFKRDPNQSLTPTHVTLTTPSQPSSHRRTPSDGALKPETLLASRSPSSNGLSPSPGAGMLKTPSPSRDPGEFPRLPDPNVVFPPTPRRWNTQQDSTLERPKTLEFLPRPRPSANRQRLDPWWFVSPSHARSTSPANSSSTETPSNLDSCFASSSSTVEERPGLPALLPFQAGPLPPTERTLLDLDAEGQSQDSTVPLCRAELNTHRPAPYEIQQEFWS

**Q.** For CN(C(=O)CN1CCOCC1)c1ccc2sc3c(-c4cccc5c(=O)cc(N6CC7CCC(C6)O7)oc45)cccc3c2c1 [NU5455], which inhibition at 1 µM is on record?
**A.** -0.5%
